From PMC10945809 (Proceedings of the National Academy of Sciences of the …, 2024)

Target: T1, human microsomal FMO1 (Homo sapiens, UniProt Q01740)
T1 sequence (Q01740 2-532): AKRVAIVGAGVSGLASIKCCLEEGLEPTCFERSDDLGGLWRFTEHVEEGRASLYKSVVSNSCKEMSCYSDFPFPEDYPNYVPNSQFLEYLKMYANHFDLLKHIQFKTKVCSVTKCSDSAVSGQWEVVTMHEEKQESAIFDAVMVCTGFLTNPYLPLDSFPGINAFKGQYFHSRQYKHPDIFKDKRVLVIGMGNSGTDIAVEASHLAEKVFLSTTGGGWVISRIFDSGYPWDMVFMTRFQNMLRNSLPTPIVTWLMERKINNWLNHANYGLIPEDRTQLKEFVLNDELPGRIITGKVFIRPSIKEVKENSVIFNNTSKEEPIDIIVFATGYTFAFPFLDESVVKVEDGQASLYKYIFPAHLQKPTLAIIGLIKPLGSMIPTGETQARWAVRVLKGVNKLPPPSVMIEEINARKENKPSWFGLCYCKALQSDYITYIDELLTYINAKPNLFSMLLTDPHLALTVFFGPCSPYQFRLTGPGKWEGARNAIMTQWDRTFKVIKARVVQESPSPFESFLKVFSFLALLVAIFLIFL
Assay: absorption spectrum
Format: biochemical
Conditions: PBS; microsomal FMO1 as positive control

With `Cc1cc2nc3c(=O)[nH]c(=O)nc-3n(C[C@H](O)[C@H](O)[C@H](O)COP(=O)(O)OP(=O)(O)OC[C@H]3O[C@@H](n4cnc5c(N)ncnc54)[C@H](O)[C@@H]3O)c2cc1C` [FAD] the absorption spectrum was “FAD bound to human microsomal FMO1 (orange)”.
